Assay results taken from the METLIN SMRT retention time set (Domingo-Almenara et al. 2019).

Assay: gradient 5% acetonitrile 3 min, to 50% in 2 min, to 85% in 15 min, held 3 min, 100 µL/min
Conditions: column: Zorbax Extend-C18 2.1 x 50 mm; eluents: water / acetonitrile, 0.1% formic acid
How it was run: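 In both positive and negative ionization mode, a quadrupole time-of-flight mass spectrometer coupled to HPLC analyzed pure standards run in mixtures of ~100 molecules. The Zorbax Extend-C18 column (2.1 × 50 mm, 1.8 μm) was operated at 100 μL/min with water and acetonitrile, each containing 0.1% formic acid. The dead volume was 40 μL and the dwell volume 900 μL. Retention time came from adduct peaks that were computationally picked and individually inspected by hand.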

For `CCCC(NC(=O)c1ccc(C)cc1C)C(=O)Nc1nc2ccccc2[nH]1` (configuration not stated), the RP-LC retention time was 735 s.

Work on `CCc1ccc(NC(=O)N2CCCC2c2cc(C)on2)cc1` (configuration not stated) yielded an RP-LC retention time of 845 s.

For `O=C(Nc1ccccc1)c1csc(-c2ccc(N3CCCC3)nc2)n1`, the RP-LC retention time was 728 s.

For `O=C1C[C@@H](c2ccc(O)c(O)c2)Oc2c1ccc(O[C@@H]1O[C@H](CO)[C@@H](O)[C@H](O)[C@H]1O)c2O`, the RP-LC retention time was 617 s.

In the case of `Cc1cccc(Oc2nccnc2N2CCC(C(=O)NC3CCCCCC3)CC2)c1`, the RP-LC retention time is reported as 1110 s.

`Cc1ccc(CNC(=O)CN2C(=O)C3CCCCN3c3ccc(S(=O)(=O)N4CCCC4)cc32)cc1` (configuration not stated) gave an RP-LC retention time of 966 s.

With `CC1CCCCN1C(=O)Cn1c(=O)n(C2CCCCC2)c(=O)c2ccccc21` (configuration not stated) the RP-LC retention time was 1010 s.

`C[C@@H](Oc1ccc(S(C)(=O)=O)cc1C(=O)N1CCN(c2ncc(C(F)(F)F)cc2F)CC1)C(F)(F)F` gave an RP-LC retention time of 1090 s.

With `Cc1ccc(C)c(CNC(=O)CCc2conc2-c2ccc(F)cc2)c1` the RP-LC retention time was 1010 s.

With `CCc1ccc2c(c1)cc(S(=O)(=O)c1ccccc1)c(=O)n2CC(=O)NCCCOC` the RP-LC retention time was 808 s.

`O=C([C@@H]1C[C@H](F)CN1C(=O)Nc1cccc(F)c1)N1CCCCC1` showed an RP-LC retention time of 708 s.

For `COc1ccc(C(=O)N2CCC3(CC2)NC(=O)c2cc(C)ccc2N3C)c(OC)c1`, the RP-LC retention time was 754 s.

Work on `Cc1cccc(Nc2c(-c3ccc(N(C)C)cc3)nc3cnccn23)c1C` yielded an RP-LC retention time of 900 s.

Work on `Oc1cccc(-c2nc3cnccn3c2Nc2ccc(F)cc2)c1` yielded an RP-LC retention time of 728 s.

Compound `CC(=O)c1ccc(Oc2ccccc2)cc1` has an RP-LC retention time of 920 s.

Compound `CCOc1cc(=O)n2c(c1C(=O)Nc1ccc(Br)c(C)c1)CCCC2` has an RP-LC retention time of 848 s.

With `Cn1nc(-c2nnc(-c3ccccc3)o2)c2c1CCN(S(=O)(=O)c1ccc(C(C)(C)C)cc1)C2` the RP-LC retention time was 1150 s.

For `COc1cc(OC)c(NC(=O)NCC(c2cccnc2)c2c[nH]c3ccccc23)cc1Cl` (configuration not stated), the RP-LC retention time was 706 s.

`CCCN1CCC[C@H](c2cccc(O)c2)C1` showed an RP-LC retention time of 588 s.

In the case of `CCC(CC)C(=O)Nc1nc(-c2ccc3c(c2)N(C)C(=O)CO3)c(C)s1`, the RP-LC retention time is reported as 962 s.

In the case of `COc1ccccc1CNS(=O)(=O)c1ccc2c(c1)CCCC(=O)N2`, the RP-LC retention time is reported as 721 s.

`COc1ncccc1CNC(=O)Cc1cccnc1` showed an RP-LC retention time of 538 s.

For `CC(C)CNC(=O)CC1Sc2ncccc2N(CC(C)C)C1=O` (configuration not stated), the RP-LC retention time was 791 s.

Compound `Cc1ccc(Nc2nc(C)cc3nn(CC(=O)NC4CCCC4)c(=O)n23)cc1` has an RP-LC retention time of 640 s.

`Cc1c(-c2nnc(C3CCC3)o2)c(S(=O)(=O)Nc2cccc(Cl)c2F)c(C)n1C` showed an RP-LC retention time of 1060 s.

With `CC12CC(NC(=O)N1c1cccc(C(=O)Nc3ccc4c(c3)OCCO4)c1)c1ccccc1O2` (configuration not stated) the RP-LC retention time was 830 s.

For `Cc1ccc(C(C)C)c(OCC(=O)N(Cc2ccc(C)o2)C2CCS(=O)(=O)C2)c1` (configuration not stated), the RP-LC retention time was 1110 s.

In the case of `CC(C)c1cc(C(=O)NC2CCCCCC2)nc2ccnn12`, the RP-LC retention time is reported as 1170 s.

Work on `COC(=O)C1=CN(c2ccc(Br)cc2)c2cc(F)ccc2S1(=O)=O` yielded an RP-LC retention time of 939 s.

Compound `O=C(c1ccc2c(c1)CCCC2)N1CCN(c2ccccc2)CC1` has an RP-LC retention time of 1050 s.

`Cn1cc(-c2ccncc2)c(-c2ccc(OCc3ccc4ccccc4n3)cc2)n1` gave an RP-LC retention time of 717 s.

With `CCS(=O)(=O)c1nc2ccc(NS(=O)(=O)c3ccccc3F)cc2s1` the RP-LC retention time was 835 s.

With `CC(C)n1nnc2ccc(-c3noc(-c4ccc(F)cc4)n3)cc21` the RP-LC retention time was 1140 s.

`Cc1cccc(N2CCN(C(=O)CCC3CCCN(C(=O)Nc4ccccc4)C3)CC2)c1C` (configuration not stated) gave an RP-LC retention time of 1080 s.

With `Cc1nc(C)c(-c2nnc(NC(=O)C3CC(=O)N(c4ccc(F)cc4)C3)o2)s1` (configuration not stated) the RP-LC retention time was 652 s.

Compound `COc1cc(-c2noc(Cn3cnc4c(cnn4-c4ccc(F)cc4)c3=O)n2)cc(OC)c1OC` has an RP-LC retention time of 938 s.

With `Cc1cnc(-c2cccnc2)n1C1CCN(S(=O)(=O)c2cccnc2)C1` (configuration not stated) the RP-LC retention time was 575 s.

Compound `Cc1sc2nc(SCc3ccc(C(=O)NCCO)cc3)[nH]c(=O)c2c1C` has an RP-LC retention time of 647 s.

With `CN1CCN(c2c(C(=O)c3ccccc3)cnc3cc4c(cc23)OCO4)CC1` the RP-LC retention time was 560 s.

For `O=C(Cn1ccc2c(SCc3ccc(F)cc3)nccc21)NCc1ccc2c(c1)OCO2`, the RP-LC retention time was 744 s.

For `C=CCNc1nc(-c2cccc([N+](=O)[O-])c2)cs1`, the RP-LC retention time was 949 s.

With `Cc1nc(Cn2cccc2C(=O)Nc2cccc(Cl)c2)no1` the RP-LC retention time was 911 s.

`CC(C)Cn1c(=O)c2cc(C(=O)Nc3ccc(N4CCOCC4)cc3)nn2c2ccccc21` gave an RP-LC retention time of 953 s.

`Cc1cccc(C)c1NC(=O)Cn1cnc2nc(N3CCCC(C(=O)NC4CC4)C3)sc2c1=O` (configuration not stated) gave an RP-LC retention time of 678 s.

In the case of `O=c1ccc(N2CCCN(S(=O)(=O)c3ccc(F)cc3F)CC2)nn1-c1ccc(Cl)cc1`, the RP-LC retention time is reported as 966 s.

`COc1ccccc1NC(=O)C1CCCN1S(=O)(=O)c1cc2c(cc1C)NC(=O)C(C)O2` (configuration not stated) showed an RP-LC retention time of 801 s.

For `COc1cc(NC(=O)c2csc(-c3cn(C)c4ncccc34)n2)cc(OC)c1`, the RP-LC retention time was 1010 s.

For `CC(C)(C)NC(=O)NC1CCN(c2nc3cccnc3n(Cc3ccccc3)c2=O)CC1`, the RP-LC retention time was 995 s.

In the case of `COc1ccc(C2(C(=O)N3CCC4(CC3)N(C)C(=O)CS4=O)CC2)cc1` (configuration not stated), the RP-LC retention time is reported as 636 s.

`CC(C)Cn1cc(S(=O)(=O)Nc2ccc(F)cc2F)c2cccnc21` showed an RP-LC retention time of 944 s.

`Cc1ccc(F)c(NS(=O)(=O)c2ccc3c(c2)C(=O)N(C)c2ncccc2O3)c1` gave an RP-LC retention time of 924 s.

`CN(C)c1ccc(C(=O)Nc2cc(-c3cccnc3)no2)cc1` showed an RP-LC retention time of 738 s.

Compound `O=C(Nc1ccc2c(c1)OCO2)C1CCN(S(=O)(=O)c2cc(C(=O)N3CCCC3)cs2)CC1` has an RP-LC retention time of 770 s.

In the case of `Cc1ccc(-c2csc(NC(=O)c3c(-c4ccc(F)cc4)nc4n3CCS4(=O)=O)n2)cc1`, the RP-LC retention time is reported as 1070 s.

`O=C(NCCN1CCCCCC1)c1cc2n(n1)CCCN(Cc1ccc(Cl)cc1)C2=O` showed an RP-LC retention time of 670 s.

`CCn1cc(S(=O)(=O)Nc2cccc(F)c2)c2cccnc21` gave an RP-LC retention time of 817 s.

With `COc1ccccc1NC(=O)CSc1nnc2c3cc(-c4ccc(F)cc4)nn3ccn12` the RP-LC retention time was 897 s.

`CCOC(=O)N1CCC(N2CCCC(COc3ccccc3C(=O)N3CCCC3)C2)CC1` (configuration not stated) gave an RP-LC retention time of 612 s.

Compound `CCOC(=O)Cc1ccc(NC(=O)N2CCCC2c2cccs2)cc1` (configuration not stated) has an RP-LC retention time of 921 s.

`O=C(C1CCN(c2nnc(-c3ccccc3)o2)CC1)N1CCCCCC1` showed an RP-LC retention time of 810 s.

Work on `CN(Cc1ccccc1)C(=O)c1ccc(NC(=O)[C@H]2[C@@H]3C[C@@H]4[C@H]2C(=O)O[C@@H]4C3)cc1` yielded an RP-LC retention time of 775 s.

Compound `COc1ccc(OCc2nc(CCN(C)C(=O)COc3ccccc3)no2)cc1` has an RP-LC retention time of 852 s.

In the case of `Cc1ccc(S(=O)(=O)N2C[C@@H](F)C[C@H]2C(=O)N2CCCCC2)cc1F`, the RP-LC retention time is reported as 836 s.

`COc1cc(NC(=O)CN2C(=O)C(O)(c3ccccc3)c3ccccc32)cc(OC)c1` (configuration not stated) gave an RP-LC retention time of 872 s.

`O=C(COc1ccc(F)cc1)N1CCOc2ccc(N3CCOCC3)cc2C1` showed an RP-LC retention time of 787 s.

`Cc1onc(-c2c(F)cccc2Cl)c1C(=O)N1CCOCC1` showed an RP-LC retention time of 727 s.

In the case of `Cc1nn(C(C)C(=O)NCCCN(C)Cc2ccccc2)c(=O)c2c(C)n(-c3ccccc3)nc12` (configuration not stated), the RP-LC retention time is reported as 687 s.

`Cn1cnc(S(=O)(=O)N2CCOc3ccc(NC(=O)C4CC4)cc3C2)c1` gave an RP-LC retention time of 658 s.

For `COc1cccc(NC(=O)C2CCN(C(=O)C3Sc4ccccc4NC3=O)CC2)c1` (configuration not stated), the RP-LC retention time was 752 s.

`Cc1ccc(S(=O)(=O)N2CC(=O)N(Cc3ccccc3)C(C)(C(=O)NCc3ccccc3)C2)cc1` (configuration not stated) showed an RP-LC retention time of 1010 s.

`CCOc1ccc2ncc(C#N)c(N3CCC(C(=O)Nc4ccccc4OCC)CC3)c2c1` gave an RP-LC retention time of 984 s.

Compound `CCc1ccccc1NC(=O)C1CCCN(c2nc3ccccc3nc2C(F)(F)F)C1` (configuration not stated) has an RP-LC retention time of 1200 s.

`CCn1c(=O)c2c(nc3n2CC(C)CN3c2ccc(Br)cc2)n(C)c1=O` (configuration not stated) gave an RP-LC retention time of 954 s.

`COc1ccc(Cn2c(=O)c3sccc3n(Cc3nc(-c4ccc(C)c(C)c4)no3)c2=O)cc1` showed an RP-LC retention time of 1180 s.

In the case of `COCCn1cc(C(=O)NCC(C)C)c2nn(-c3ccccc3)c(=O)c-2c1`, the RP-LC retention time is reported as 851 s.

Compound `O=C(CC1CCCC1)N1[C@H]2CC[C@@H]1c1cnc(-c3ccccc3)nc1C2` has an RP-LC retention time of 1000 s.

With `O=C(NCc1cccc(F)c1)c1ccc(-c2ccsc2)nc1` the RP-LC retention time was 871 s.

`O=C(CN1C(=O)NC2(CCCCC2)C1=O)Nc1ccccc1Cl` showed an RP-LC retention time of 764 s.

Work on `O=C(NCCc1c[nH]c2ccccc12)c1cc(=O)c(OCc2ccc(F)cc2)co1` yielded an RP-LC retention time of 765 s.

`COc1cc(Cl)ccc1C(=O)NCc1c(C)noc1C` gave an RP-LC retention time of 810 s.

With `CCOC(=O)C1CCN(c2cc3c(cc2NC(=O)NC)n(C)c(=O)n3C)CC1` the RP-LC retention time was 633 s.

With `CC1CCN(C(=O)CCCN2C(=O)CCn3nc(-c4cn(C)c5ccccc45)cc32)CC1` the RP-LC retention time was 880 s.

`CN(CCCNC(=O)C1CCCN(C(=O)c2cccc(Cl)c2)C1)c1ccccc1` (configuration not stated) gave an RP-LC retention time of 676 s.

`CS(=O)(=O)N(C1CCOCC1)C1CN(C(=O)COc2ccccc2)C1` showed an RP-LC retention time of 692 s.

In the case of `CCCCNC(=O)C1Cc2cc(S(=O)(=O)N3CCCCC3)ccc2N1C(C)=O` (configuration not stated), the RP-LC retention time is reported as 806 s.

Work on `O=C(Cn1c2ccccc2n2c(=O)cc(-c3ccncc3)nc12)NC1CCCC1` yielded an RP-LC retention time of 660 s.

With `COCCNC(=O)N1CCCN(C2=NS(=O)(=O)C(c3ccccc3)=C2C)CC1` the RP-LC retention time was 676 s.
